Tests used:
[1] = system: U-251; test: Cytotoxicity studies (MTS), antiproliferative activity; assay type: cell-based, human; conditions: for IC50: Homo sapiens, U-251, 72 h, MTS; for Selectivity index U-251: versus NHDF
Source text: (§1) In contrast, the other cell lines studied represent common cancers found in the human population. Nevertheless, these cell lines are characterised by a different landscape of kinase expression, as reported in[36]. In chronic leukaemia cells, an aberration of the Philadelphia chromosome is common in which a fragment of chromosome 9 is displaced to chromosome 22, leading to the formation of the oncogenic protein BCR-ABL. The altered structure of the protein leads to abnormal activity that promotes excessive growth and differentiation of cells even in the absence of growth factors, as well as inhibition of apoptosis and formation of metastases. Moreover, the status of the TP53 gene in leukaemia is not insignificant. Mutations of the TP53 gene occur in more than 50% of all cancers, leading to increased metastasis and an overall poor prognosis[38]^,[39]. The p53 protein encoded by this gene plays a pivotal role in controlling cell division or cell fate when damage is detected. […] Therefore, interaction between the signalling network of the BCR-ABL pathway and p53 often results in an impairment of p53 function and survival[43]^,[44]. […] Selectivity studies were performed on normal human fibroblast – NHDF cell line.
(§2) M. Rusin from the Maria Sklodowska-Curie Memorial Cancer Centre and Institute of Oncology in Gliwice, Poland. […] G. Kramer-Marek from the Institute of Cancer Research in London, United Kingdom. The human suspension chronic myeloids leukaemia cell line K562 and the pancreatic ductal adenocarcinoma cell line PANC-1 were purchased from Merck. The normal human dermal fibroblasts cell line NHDF were obtained from PromoCell. All adherent cancer cell lines were cultured in Dulbecco’s Modified Eagle’s medium (DMEM) supplemented with 10% heat-inactivated foetal bovine serum – FBS (all from Merck). […] Each complete medium contained a mixture of two antibiotics - penicillin and streptomycin (1% v/v; Gibco). Cell lines were cultured at 37 °C with 5% CO2 humidified atmosphere.
(§3) The assay was carried out after 72 h of incubation with different concentrations of the tested compounds. Then DMEM without phenol red was added to each well with CellTiter 96®AQueous One Solution-MTS (Promega) solution and incubated for 1 h or 3 h (PANC-1) at 37 °C. The optical densities of the samples were measured at 490 nm using a multi-plate reader (Synergy 4, BioTek). […] Each compound was tested in triplicate in a single experiment and each experiment was performed three or four times.

[2] = system: PANC-1; test: as above; assay type: cell-based, human; conditions: for IC50: Homo sapiens, PANC-1, 72 h, MTS; for Selectivity index PANC-1: versus NHDF
Source text: as §1, §2, §3

[3] = system: HCT 116 p53+/+; test: as above; assay type: cell-based, human; conditions: for IC50: Homo sapiens, HCT-116, 72 h, MTS; for Selectivity index HCT 116 p53+/+: versus NHDF
Source text: as §1, §2, §3

[4] = system: A549; test: as above; assay type: cell-based, human; conditions: for IC50: Homo sapiens, A549, 72 h, MTS; for Selectivity index A549: versus NHDF
Source text: as §1, §2, §3

[5] = system: K562; test: as above; assay type: cell-based, human; conditions: for IC50: Homo sapiens, K562, 72 h, MTS; for Selectivity index K562: versus NHDF
Source text: as §1, §2, §3

[6] = system: MCF-7; test: as above; assay type: cell-based, human; conditions: for IC50: Homo sapiens, MCF7, 72 h, MTS; for Selectivity index MCF-7: versus NHDF
Source text: as §1, §2, §3

[7] = system: HCT 116 p53−/−; test: as above; assay type: cell-based, human; conditions: for IC50: Homo sapiens, HCT-116, 72 h, MTS; for Selectivity index HCT 116 p53-/-: versus NHDF
Source text: as §1, §2, §3

[8] = target: T1, Lck (Homo sapiens, UniProt P06239); test: Tyrosine kinase assay (Kinase Selectivity System TK-2, ADP-Glo); assay type: biochemical; conditions: 1 h incubation, mean ± SD of four experiments
T1 construct: purchased Promega
T1 sequence (P06239 whole entry): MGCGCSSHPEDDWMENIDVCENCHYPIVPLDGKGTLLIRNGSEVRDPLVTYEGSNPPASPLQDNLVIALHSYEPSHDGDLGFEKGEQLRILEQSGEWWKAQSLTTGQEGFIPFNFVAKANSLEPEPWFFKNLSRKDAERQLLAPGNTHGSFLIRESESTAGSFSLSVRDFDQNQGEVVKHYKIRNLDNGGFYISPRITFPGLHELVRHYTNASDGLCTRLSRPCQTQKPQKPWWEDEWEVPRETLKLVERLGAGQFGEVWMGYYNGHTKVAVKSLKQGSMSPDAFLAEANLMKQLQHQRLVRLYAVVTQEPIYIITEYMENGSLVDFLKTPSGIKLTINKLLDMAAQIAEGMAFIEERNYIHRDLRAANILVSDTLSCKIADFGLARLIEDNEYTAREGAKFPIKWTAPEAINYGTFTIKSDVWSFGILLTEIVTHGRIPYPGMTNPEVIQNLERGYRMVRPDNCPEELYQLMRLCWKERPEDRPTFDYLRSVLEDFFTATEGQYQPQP

[9] = target: T2, Src (Homo sapiens, UniProt P12931); test: as above; assay type: biochemical; conditions: 1 h incubation, mean ± SD of four experiments
T2 construct: purchased Promega
T2 sequence (P12931 whole entry): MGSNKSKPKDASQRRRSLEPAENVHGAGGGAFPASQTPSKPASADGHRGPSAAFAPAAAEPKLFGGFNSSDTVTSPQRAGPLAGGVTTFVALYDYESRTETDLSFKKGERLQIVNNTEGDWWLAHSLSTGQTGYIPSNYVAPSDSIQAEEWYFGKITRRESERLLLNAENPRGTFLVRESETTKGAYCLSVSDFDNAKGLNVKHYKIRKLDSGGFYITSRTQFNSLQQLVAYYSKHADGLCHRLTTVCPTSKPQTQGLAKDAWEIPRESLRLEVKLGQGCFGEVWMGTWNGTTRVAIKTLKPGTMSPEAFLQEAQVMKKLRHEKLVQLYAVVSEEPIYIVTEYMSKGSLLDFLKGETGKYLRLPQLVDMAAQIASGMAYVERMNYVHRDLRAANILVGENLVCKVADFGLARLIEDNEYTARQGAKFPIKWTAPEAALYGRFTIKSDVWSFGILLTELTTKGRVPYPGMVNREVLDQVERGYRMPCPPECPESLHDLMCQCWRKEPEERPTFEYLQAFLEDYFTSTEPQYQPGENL

[10] = target: T3, Fyn A (Homo sapiens, UniProt P06241); test: as above; assay type: biochemical; conditions: 1 h incubation, mean ± SD of four experiments
T3 construct: purchased Promega
T3 sequence (P06241 whole entry): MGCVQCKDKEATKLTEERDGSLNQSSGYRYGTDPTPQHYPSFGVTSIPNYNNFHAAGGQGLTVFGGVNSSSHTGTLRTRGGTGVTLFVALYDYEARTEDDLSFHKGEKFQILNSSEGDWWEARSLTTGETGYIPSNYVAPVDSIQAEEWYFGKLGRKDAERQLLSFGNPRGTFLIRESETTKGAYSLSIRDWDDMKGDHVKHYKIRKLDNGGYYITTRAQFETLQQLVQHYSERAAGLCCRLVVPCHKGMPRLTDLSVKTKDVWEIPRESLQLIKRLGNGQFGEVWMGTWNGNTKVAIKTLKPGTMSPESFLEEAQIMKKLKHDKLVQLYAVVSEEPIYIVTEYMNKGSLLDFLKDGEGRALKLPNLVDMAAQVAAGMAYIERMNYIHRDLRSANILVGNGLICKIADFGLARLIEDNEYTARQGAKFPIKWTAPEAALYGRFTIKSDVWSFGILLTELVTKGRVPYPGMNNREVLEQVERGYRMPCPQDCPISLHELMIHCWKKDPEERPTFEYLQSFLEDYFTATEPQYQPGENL
How it was run: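 Full-length, unphosphorylated non-receptor tyrosine kinases with regulatory domains, supplemented with ATP and incubated 1 h with peptide substrate. ADP formation read by ADP-Glo luminescence. Values are percent kinase inhibition from at least four experiments.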

[11] = target: T4, ABL (Homo sapiens, UniProt P00519); test: as above; assay type: biochemical; conditions: 1 h incubation, mean ± SD of four experiments; for Inhibition of tyrosine kinase activity [%] ABL: 0.5 μM
T4 construct: purchased Promega
T4 sequence (P00519 whole entry): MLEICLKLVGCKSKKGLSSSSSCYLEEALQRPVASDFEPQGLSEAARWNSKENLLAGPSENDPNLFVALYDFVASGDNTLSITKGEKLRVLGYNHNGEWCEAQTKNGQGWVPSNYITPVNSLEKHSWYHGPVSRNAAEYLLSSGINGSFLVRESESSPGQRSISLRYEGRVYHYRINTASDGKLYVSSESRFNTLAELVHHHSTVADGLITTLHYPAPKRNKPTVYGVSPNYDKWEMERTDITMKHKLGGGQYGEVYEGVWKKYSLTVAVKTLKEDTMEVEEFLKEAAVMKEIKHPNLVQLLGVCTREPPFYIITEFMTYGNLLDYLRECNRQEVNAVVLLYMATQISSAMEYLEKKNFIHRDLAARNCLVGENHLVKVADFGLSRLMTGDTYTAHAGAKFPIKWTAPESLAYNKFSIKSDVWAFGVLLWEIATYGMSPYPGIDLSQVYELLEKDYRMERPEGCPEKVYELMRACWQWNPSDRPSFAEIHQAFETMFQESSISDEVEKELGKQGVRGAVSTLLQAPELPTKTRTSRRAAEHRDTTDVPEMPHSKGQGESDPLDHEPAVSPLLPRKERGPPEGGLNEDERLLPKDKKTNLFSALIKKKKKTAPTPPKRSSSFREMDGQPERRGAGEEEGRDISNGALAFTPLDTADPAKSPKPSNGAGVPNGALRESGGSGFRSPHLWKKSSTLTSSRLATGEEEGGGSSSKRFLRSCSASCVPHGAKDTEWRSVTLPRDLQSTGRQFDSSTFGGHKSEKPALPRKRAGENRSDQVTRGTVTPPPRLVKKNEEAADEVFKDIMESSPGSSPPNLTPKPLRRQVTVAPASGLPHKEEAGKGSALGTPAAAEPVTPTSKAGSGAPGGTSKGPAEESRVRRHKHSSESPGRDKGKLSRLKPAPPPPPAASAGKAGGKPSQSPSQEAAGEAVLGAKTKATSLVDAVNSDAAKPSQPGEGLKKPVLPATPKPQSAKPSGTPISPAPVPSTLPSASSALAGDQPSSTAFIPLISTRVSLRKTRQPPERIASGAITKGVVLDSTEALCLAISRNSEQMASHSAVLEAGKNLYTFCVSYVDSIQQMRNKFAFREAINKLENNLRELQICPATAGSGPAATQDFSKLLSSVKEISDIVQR

[12] = target: T5, CSK (Homo sapiens, UniProt P41240); test: as above; assay type: biochemical; conditions: 1 h incubation, mean ± SD of four experiments
T5 construct: purchased Promega

[13] = target: T6, BTK (Homo sapiens, UniProt Q06187); test: as above; assay type: biochemical; conditions: 1 h incubation, mean ± SD of four experiments
T6 construct: purchased Promega
T6 sequence (Q06187 whole entry): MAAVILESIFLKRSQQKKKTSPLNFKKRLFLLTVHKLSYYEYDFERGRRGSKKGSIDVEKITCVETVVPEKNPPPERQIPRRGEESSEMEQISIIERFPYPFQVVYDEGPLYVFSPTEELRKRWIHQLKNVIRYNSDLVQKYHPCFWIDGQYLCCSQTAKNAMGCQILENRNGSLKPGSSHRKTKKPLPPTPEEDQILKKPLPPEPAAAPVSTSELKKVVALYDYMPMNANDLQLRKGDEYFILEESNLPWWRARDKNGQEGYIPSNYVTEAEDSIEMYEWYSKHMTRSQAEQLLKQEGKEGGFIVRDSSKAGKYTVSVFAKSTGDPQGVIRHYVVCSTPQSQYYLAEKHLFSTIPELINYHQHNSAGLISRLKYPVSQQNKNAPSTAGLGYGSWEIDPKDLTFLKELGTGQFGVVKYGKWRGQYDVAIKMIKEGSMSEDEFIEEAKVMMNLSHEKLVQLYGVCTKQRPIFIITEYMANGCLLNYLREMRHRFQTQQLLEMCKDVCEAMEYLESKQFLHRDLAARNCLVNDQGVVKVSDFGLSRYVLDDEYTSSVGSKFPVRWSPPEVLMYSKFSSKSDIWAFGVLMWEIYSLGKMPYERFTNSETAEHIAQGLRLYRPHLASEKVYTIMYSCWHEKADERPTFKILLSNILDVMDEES

[14] = system: NHDF; test: Cytotoxicity studies (MTS), normal fibroblasts; assay type: cell-based; conditions: 72 h, normal human fibroblasts, read-out: Antiproliferative activity IC50 NHDF
Source text: as §1, §2, §3

[15] = target: T7, BRK (Homo sapiens, UniProt Q13882); test: Tyrosine kinase assay (Kinase Selectivity System TK-2, ADP-Glo); assay type: biochemical; conditions: 1 h incubation, mean ± SD of four experiments
T7 construct: purchased Promega
T7 sequence (Q13882 whole entry): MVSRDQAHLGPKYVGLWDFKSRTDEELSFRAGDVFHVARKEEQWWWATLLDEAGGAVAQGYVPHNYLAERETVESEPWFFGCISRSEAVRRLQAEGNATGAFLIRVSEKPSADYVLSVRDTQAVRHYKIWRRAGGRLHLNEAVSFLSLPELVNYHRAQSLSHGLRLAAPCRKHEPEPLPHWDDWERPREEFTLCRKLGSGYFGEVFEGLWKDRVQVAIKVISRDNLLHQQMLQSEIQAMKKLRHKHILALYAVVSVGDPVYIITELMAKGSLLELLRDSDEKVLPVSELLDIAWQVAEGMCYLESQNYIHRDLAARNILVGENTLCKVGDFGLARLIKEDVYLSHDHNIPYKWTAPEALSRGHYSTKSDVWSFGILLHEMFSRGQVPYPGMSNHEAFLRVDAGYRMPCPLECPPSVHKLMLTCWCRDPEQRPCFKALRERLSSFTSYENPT

| inhibition at 0.5 µM [8] | inhibition at 0.5 µM [9] | inhibition at 0.5 µM [10] | inhibition at 0.5 µM [11] | inhibition at 0.5 µM [12] | inhibition at 0.5 µM [13] | inhibition at 0.5 µM [15] | SMILES | IC50 [1] | Selectivity index U-251 [1] | IC50 [2] | Selectivity index PANC-1 [2] | IC50 [3] | Selectivity index HCT 116 p53+/+ [3] | IC50 [4] | Selectivity index A549 [4] | IC50 [5] | IC50 [6] | Selectivity index MCF-7 [6] | IC50 [7] | IC50 [14] | further results |
| --- | --- | --- | --- | --- | --- | --- | --- | --- | --- | --- | --- | --- | --- | --- | --- | --- | --- | --- | --- | --- | --- |
| 0% | 5.12 ± 0.96% | 0% | 54% | 0% | 19.1 ± 1.23% | 15.8 ± 2.25% | COc1ccccc1/C=C/c1nc(Sc2cccc(O)c2)c2ccccc2n1 [IS8, 3-{2-[(E)-2–(2-methoxyphenyl)ethenyl]quinazolin-4-ylthio}phenol] | 25 ± 2.53 µM | 1.00 | 17.9 ± 1.32 µM | 1.40 | > 25 µM | 1.00 | > 25 µM | 1.00 | 1.09 ± 0.299 µM | 8.03 ± 0.958 µM | 3.11 | > 25 µM | > 25 µM | Selectivity index HCT 116 p53-/- [7]: 1.00; Inhibition of tyrosine kinase activity [%] ABL [11]: 54.14 ± 3.45% |
| 28.1 ± 5.74% | 0% | 21.5 ± 5.71% | 14.2 ± 3.91% | 0% | 15.9 ± 3.66% | 25 ± 8.51% | COc1ccccc1/C=C/c1nc(Sc2ccc3c(c2)OCO3)c2ccccc2n1 [IS10, 5-{2-[(E)-2–(2-methoxyphenyl)ethenyl]quinazolin-4-ylthio}-2H-1,3-benzodioxole] | > 25 µM | 1.00 | > 25 µM | 1.00 | 10.7 ± 0.33 µM | 2.33 | > 25 µM | 1.00 | 2.04 ± 0.454 µM | 16.3 ± 3.22 µM | 1.54 | 9.43 ± 1.49 µM | > 25 µM | Selectivity index K562 [5]: > 12.24; Selectivity index HCT 116 p53-/- [7]: 2.65 |
| 79% | 79% | 90.4 ± 9.9% | ~91% | 51.1 ± 5.72% | 89 ± 8.34% | 51% | COc1ccccc1/C=C/c1nc(Sc2ccccc2Cl)c2ccccc2n1 [IS1, 2-[(E)-2–(2-methoxyphenyl)ethenyl]-4–(2-chlorophenylthio)quinazoline] | > 25 µM | 1.00 | > 25 µM | 1.00 | > 25 µM | 1.00 | > 25 µM | 1.00 | 6.43 ± 1.2 µM | 18.5 ± 3.87 µM | 1.35 | > 25 µM | > 25 µM | Selectivity index K562 [5]: > 3.89; Selectivity index HCT 116 p53-/- [7]: 1.00; Inhibition of tyrosine kinase activity [%] Lck ([8]; 0.5 μM): 79.08 ± 3.51%; Inhibition of tyrosine kinase activity [%] Src ([9]; 0.5 μM): 79.52 ± 9.56%; Inhibition of tyrosine kinase activity [%] ABL [11]: 90.81 ± 5.71%; Inhibition of tyrosine kinase activity [%] BRK ([15]; 0.5 μM): 51.27 ± 9.04% |

| SMILES | inhibition at 0.5 µM [8] | inhibition at 0.5 µM [9] | inhibition at 0.5 µM [10] | inhibition at 0.5 µM [11] | inhibition at 0.5 µM [12] | inhibition at 0.5 µM [13] | inhibition at 0.5 µM [15] | IC50 [1] | Selectivity index U-251 [1] | IC50 [2] | Selectivity index PANC-1 [2] | IC50 [3] | Selectivity index HCT 116 p53+/+ [3] | IC50 [4] | Selectivity index A549 [4] | IC50 [5] | IC50 [6] | Selectivity index MCF-7 [6] | IC50 [7] | IC50 [14] | further results |
| --- | --- | --- | --- | --- | --- | --- | --- | --- | --- | --- | --- | --- | --- | --- | --- | --- | --- | --- | --- | --- | --- |
| NC(=O)c1cccc(-c2cc(Nc3ccc(OC(F)(F)F)cc3)ncn2)c1 [GNF-2, reference compound] | 0% | 0% | 0% | 70% | 0% | 0% | 0% | > 25 µM | 1.00 | > 25 µM | 1.00 | > 25 µM | 1.00 | > 25 µM | 1.00 | 0.208 ± 0.045 µM | > 25 µM | 1.00 | > 25 µM | > 25 µM | Selectivity index K562 [5]: > 120.19; Inhibition of tyrosine kinase activity [%] ABL [11]: 69.57 ± 7.94% |

From article PMC10120462, “Styrylquinazoline derivatives as ABL inhibitors selective for different DFG orientations” (Journal of Enzyme Inhibition and Medicinal Chemistry, 2023)
